Assay results from patent publication US20230085307A1, “PYRIDAZINONE COMPOUND AND HERBICIDE” (NISSAN CHEMICAL CORPORATION, priority 2019, published 2023).

Experiments:
southern crabgrass [1] = assay: Test Example 5: herbicidal effect by foliage application, plastic box (Table 20, symbol F); format: in vivo, southern crabgrass (Digitaria ciliaris); conditions: foliage application, evaluated three weeks after application
Outline: (§1)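 Plants were sown into sterilized diluvial soil under about 1.5 cm cover and kept in a greenhouse at 25° C. to 30° C. Fourteen days on, foliage received an even spray of the diluted emulsion. Herbicidal or crop effect was judged three weeks afterwards.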

windgrass [2] = assay: Test Example 5: herbicidal effect by foliage application, plastic box (Table 20, symbol L); format: in vivo, windgrass (Apera spica-venti); conditions: foliage application, evaluated three weeks after application
Outline: as §1

velvetleaf [3] = assay: Test Example 5: herbicidal effect by foliage application, plastic box (Table 20, symbol M); format: in vivo, velvetleaf (Abutilon theophrasti); conditions: foliage application, evaluated three weeks after application
Outline: as §1

lambsquarters [4] = assay: Test Example 5: herbicidal effect by foliage application, plastic box (Table 20, symbol O); format: in vivo, lambsquarters (Chenopodium album); conditions: foliage application, evaluated three weeks after application
Outline: as §1

Italian ryegrass [5] = assay: Test Example 4: herbicidal effect by soil treatment (Table 19, symbol K); format: in vivo, Italian ryegrass (Lolium multiflorum)
Outline: (§2)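 Pre-emergence style soil spray: seeds under ~1.5 cm sterilized diluvial soil received a uniform coat of emulsion diluted to the predetermined herbicide amount. Greenhouse 25–30° C; readout at week three on previously defined criteria.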

green foxtail [6] = assay: Test Example 4: herbicidal effect by soil treatment (Table 19, symbol G); format: in vivo, green foxtail (Setaria viridis)
Outline: as §2

wild oat [7] = assay: Test Example 5: herbicidal effect by foliage application, plastic box (Table 20, symbol I); format: in vivo, wild oat (Avena fatua); conditions: foliage application, evaluated three weeks after application
Outline: as §1

blackgrass [8] = assay: Test Example 5: herbicidal effect by foliage application, plastic box (Table 20, symbol J); format: in vivo, blackgrass (Alopecurus myosuroides); conditions: foliage application, evaluated three weeks after application
Outline: as §1

persian speedwell [9] = assay: Test Example 4: herbicidal effect by soil treatment (Table 19, symbol R); format: in vivo, Persian speedwell (Veronica persica)
Outline: as §2

barnyard grass [10] = assay: Test Example 3: herbicidal effect by foliage application, Wagner pot (Table 18, symbol H); format: in vivo, barnyard grass (Echinochloa crus-galli)
Outline: (§3)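 Plants were sown in alluvial soil held under 0.1–0.5 cm standing water and grown 14 days in a greenhouse at 25–30 °C. An emulsifiable formulation, water-diluted to the set dose, was then sprayed onto the foliage, and effects were scored three weeks later using previously defined criteria.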

blackgrass [11] = assay: Test Example 4: herbicidal effect by soil treatment (Table 19, symbol J); format: in vivo, blackgrass (Alopecurus myosuroides)
Outline: as §2

Chinese sprangletop = assay: Test Example 3: herbicidal effect by foliage application, Wagner pot (Table 18, symbol D); format: in vivo, chinese sprangletop (Leptochloa chinensis)
Outline: as §3

barnyard grass [12] = assay: Test Example 5: herbicidal effect by foliage application, plastic box (Table 20, symbol H); format: in vivo, barnyard grass (Echinochloa crus-galli); conditions: foliage application, evaluated three weeks after application
Outline: as §1

Italian ryegrass [13] = assay: Test Example 5: herbicidal effect by foliage application, plastic box (Table 20, symbol K); format: in vivo, Italian ryegrass (Lolium multiflorum); conditions: foliage application, evaluated three weeks after application
Outline: as §1

persian speedwell [14] = assay: Test Example 5: herbicidal effect by foliage application, plastic box (Table 20, symbol R); format: in vivo, Persian speedwell (Veronica persica); conditions: foliage application, evaluated three weeks after application
Outline: as §1

redroot pigweed [15] = assay: Test Example 4: herbicidal effect by soil treatment (Table 19, symbol N); format: in vivo, redroot pigweed (Amaranthus retroflexus)
Outline: as §2

southern crabgrass [16] = assay: Test Example 4: herbicidal effect by soil treatment (Table 19, symbol F); format: in vivo, southern crabgrass (Digitaria ciliaris)
Outline: as §2

chickweed [17] = assay: Test Example 4: herbicidal effect by soil treatment (Table 19, symbol P); format: in vivo, common chickweed (Stellaria media)
Outline: as §2

wild oat [18] = assay: Test Example 4: herbicidal effect by soil treatment (Table 19, symbol I); format: in vivo, wild oat (Avena fatua)
Outline: as §2

rice flat sedge = assay: Test Example 3: herbicidal effect by foliage application, Wagner pot (Table 18, symbol E); format: in vivo, rice flat sedge (Cyperus iria)
Outline: as §3

lambsquarters [19] = assay: Test Example 4: herbicidal effect by soil treatment (Table 19, symbol O); format: in vivo, lambsquarters (Chenopodium album)
Outline: as §2

velvetleaf [20] = assay: Test Example 4: herbicidal effect by soil treatment (Table 19, symbol M); format: in vivo, velvetleaf (Abutilon theophrasti)
Outline: as §2

chickweed [21] = assay: Test Example 5: herbicidal effect by foliage application, plastic box (Table 20, symbol P); format: in vivo, common chickweed (Stellaria media); conditions: foliage application, evaluated three weeks after application
Outline: as §1

redroot pigweed [22] = assay: Test Example 5: herbicidal effect by foliage application, plastic box (Table 20, symbol N); format: in vivo, redroot pigweed (Amaranthus retroflexus); conditions: foliage application, evaluated three weeks after application
Outline: as §1

windgrass [23] = assay: Test Example 4: herbicidal effect by soil treatment (Table 19, symbol L); format: in vivo, windgrass (Apera spica-venti)
Outline: as §2

green foxtail [24] = assay: Test Example 5: herbicidal effect by foliage application, plastic box (Table 20, symbol G); format: in vivo, green foxtail (Setaria viridis); conditions: foliage application, evaluated three weeks after application
Outline: as §1

barnyard grass [25] = assay: Test Example 4: herbicidal effect by soil treatment (Table 19, symbol H); format: in vivo, barnyard grass (Echinochloa crus-galli)
Outline: as §2

[26] = amount of applied herbicide 320 g/ha
[27] = amount of applied herbicide 221 g/ha

CCCC(=O)Oc1c(C)nn(C)c(=O)c1-c1c(-c2ccc(F)cc2)sc2ccc(C)cc12 [2-135]
herbicidal effect on F: southern crabgrass (southern crabgrass [1]; 320 g/ha): 0 (Herbicidal rate of 5% or less (almost no effect)) | herbicidal effect on L: windgrass (windgrass [2]; 320 g/ha): 0 (Herbicidal rate of 5% or less (almost no effect)) | herbicidal effect on M: velvetleaf (velvetleaf [3]; 320 g/ha): 4 (Herbicidal rate of 70% or more and less than 90%) | herbicidal effect on O: lambsquarters (lambsquarters [4]; 320 g/ha): 3 (Herbicidal rate of 40% or more and less than 70%) | K: Italian ryegrass, herbicidal effect rating (Italian ryegrass [5]; [26]): 1 (Herbicidal rate of 5% or more and less than 20%) | G: green foxtail, herbicidal effect rating (green foxtail [6]; [26]): 0 (Herbicidal rate of 5% or less (almost no effect)) | herbicidal effect on I: wild oat (wild oat [7]; 320 g/ha): 0 (Herbicidal rate of 5% or less (almost no effect)) | herbicidal effect on J: blackgrass (blackgrass [8]; 320 g/ha): 0 (Herbicidal rate of 5% or less (almost no effect)) | R: persian speedwell, herbicidal effect rating (persian speedwell [9]; [26]): 0 (Herbicidal rate of 5% or less (almost no effect)) | herbicidal effect on H: barnyard grass (barnyard grass [10]; [26]): 1 (Herbicidal rate of 5% or more and less than 20%) | J: blackgrass, herbicidal effect rating (blackgrass [11]; [26]): 0 (Herbicidal rate of 5% or less (almost no effect)) | herbicidal effect on D: Chinese sprangletop (Chinese sprangletop; [26]): 0 (Herbicidal rate of 5% or less (almost no effect)) | herbicidal effect on H: barnyard grass (barnyard grass [12]; 320 g/ha): 0 (Herbicidal rate of 5% or less (almost no effect)) | herbicidal effect on K: Italian ryegrass (Italian ryegrass [13]; 320 g/ha): 3 (Herbicidal rate of 40% or more and less than 70%) | herbicidal effect on R: persian speedwell (persian speedwell [14]; 320 g/ha): 1 (Herbicidal rate of 5% or more and less than 20%) | N: redroot pigweed, herbicidal effect rating (redroot pigweed [15]; [26]): 0 (Herbicidal rate of 5% or less (almost no effect)) | F: southern crabgrass, herbicidal effect rating (southern crabgrass [16]; [26]): 0 (Herbicidal rate of 5% or less (almost no effect)) | P: chickweed, herbicidal effect rating (chickweed [17]; [26]): 3 (Herbicidal rate of 40% or more and less than 70%) | I: wild oat, herbicidal effect rating (wild oat [18]; [26]): 0 (Herbicidal rate of 5% or less (almost no effect)) | herbicidal effect on E: rice flat sedge (rice flat sedge; [26]): 3 (Herbicidal rate of 40% or more and less than 70%) | O: lambsquarters, herbicidal effect rating (lambsquarters [19]; [26]): 0 (Herbicidal rate of 5% or less (almost no effect)) | M: velvetleaf, herbicidal effect rating (velvetleaf [20]; [26]): 0 (Herbicidal rate of 5% or less (almost no effect)) | herbicidal effect on P: chickweed (chickweed [21]; 320 g/ha): 5 (Herbicidal rate of 90% or more (almost completely withered)) | herbicidal effect on N: redroot pigweed (redroot pigweed [22]; 320 g/ha): 5 (Herbicidal rate of 90% or more (almost completely withered)) | L: windgrass, herbicidal effect rating (windgrass [23]; [26]): 0 (Herbicidal rate of 5% or less (almost no effect)) | herbicidal effect on G: green foxtail (green foxtail [24]; 320 g/ha): 0 (Herbicidal rate of 5% or less (almost no effect)) | H: barnyard grass, herbicidal effect rating (barnyard grass [25]; [26]): 0 (Herbicidal rate of 5% or less (almost no effect))

Cc1ccc2sc(-c3ccc(C#N)cc3)c(-c3c(O)c(C)nn(C)c3=O)c2c1 [2-146]
herbicidal effect on F: southern crabgrass (criteria 0-5) (southern crabgrass [1]; 221 g/ha): 0 (Herbicidal rate of 5% or less (almost no effect)) | herbicidal effect on L: windgrass (criteria 0-5) (windgrass [2]; 221 g/ha): 0 (Herbicidal rate of 5% or less (almost no effect)) | herbicidal effect on M: velvetleaf (criteria 0-5) (velvetleaf [3]; 221 g/ha): 2 (Herbicidal rate of 20% or more and less than 40%) | herbicidal effect on O: lambsquarters (criteria 0-5) (lambsquarters [4]; 221 g/ha): 3 (Herbicidal rate of 40% or more and less than 70%) | K: Italian ryegrass, herbicidal effect rating (Italian ryegrass [5]; [27]): 0 (Herbicidal rate of 5% or less (almost no effect)) | G: green foxtail, herbicidal effect rating (green foxtail [6]; [27]): 0 (Herbicidal rate of 5% or less (almost no effect)) | herbicidal effect on I: wild oat (criteria 0-5) (wild oat [7]; 221 g/ha): 3 (Herbicidal rate of 40% or more and less than 70%) | herbicidal effect on J: blackgrass (criteria 0-5) (blackgrass [8]; 221 g/ha): 3 (Herbicidal rate of 40% or more and less than 70%) | R: persian speedwell, herbicidal effect rating (persian speedwell [9]; [27]): 5 (Herbicidal rate of 90% or more (almost completely withered)) | herbicidal effect on H: barnyard grass (barnyard grass [10]; [27]): 4 (Herbicidal rate of 70% or more and less than 90%) | J: blackgrass, herbicidal effect rating (blackgrass [11]; [27]): 0 (Herbicidal rate of 5% or less (almost no effect)) | herbicidal effect on D: Chinese sprangletop (Chinese sprangletop; [27]): 0 (Herbicidal rate of 5% or less (almost no effect)) | herbicidal effect on H: barnyard grass (criteria 0-5) (barnyard grass [12]; 221 g/ha): 4 (Herbicidal rate of 70% or more and less than 90%) | herbicidal effect on K: Italian ryegrass (criteria 0-5) (Italian ryegrass [13]; 221 g/ha): 4 (Herbicidal rate of 70% or more and less than 90%) | herbicidal effect on R: persian speedwell (criteria 0-5) (persian speedwell [14]; 221 g/ha): 5 (Herbicidal rate of 90% or more (almost completely withered)) | N: redroot pigweed, herbicidal effect rating (redroot pigweed [15]; [27]): 4 (Herbicidal rate of 70% or more and less than 90%) | F: southern crabgrass, herbicidal effect rating (southern crabgrass [16]; [27]): 0 (Herbicidal rate of 5% or less (almost no effect)) | P: chickweed, herbicidal effect rating (chickweed [17]; [27]): 5 (Herbicidal rate of 90% or more (almost completely withered)) | I: wild oat, herbicidal effect rating (wild oat [18]; [27]): 0 (Herbicidal rate of 5% or less (almost no effect)) | herbicidal effect on E: rice flat sedge (rice flat sedge; [27]): 3 (Herbicidal rate of 40% or more and less than 70%) | O: lambsquarters, herbicidal effect rating (lambsquarters [19]; [27]): 0 (Herbicidal rate of 5% or less (almost no effect)) | M: velvetleaf, herbicidal effect rating (velvetleaf [20]; [27]): 0 (Herbicidal rate of 5% or less (almost no effect)) | herbicidal effect on P: chickweed (criteria 0-5) (chickweed [21]; 221 g/ha): 5 (Herbicidal rate of 90% or more (almost completely withered)) | herbicidal effect on N: redroot pigweed (criteria 0-5) (redroot pigweed [22]; 221 g/ha): 5 (Herbicidal rate of 90% or more (almost completely withered)) | L: windgrass, herbicidal effect rating (windgrass [23]; [27]): 0 (Herbicidal rate of 5% or less (almost no effect)) | herbicidal effect on G: green foxtail (criteria 0-5) (green foxtail [24]; 221 g/ha): 4 (Herbicidal rate of 70% or more and less than 90%) | H: barnyard grass, herbicidal effect rating (barnyard grass [25]; [27]): 0 (Herbicidal rate of 5% or less (almost no effect))
